Reference: patent US20080096894A1, “Anti-Bacterial Compounds” (ASTON UNIVERSITY, priority 2005, published 2008)
Where two headings read alike, the source gives them in different places.

Key:
Assay in all cases: MIC, agar dilution, multipoint inoculator
E. coli = format: cell-based, Escherichia coli; settings: Escherichia coli, 18 h, upper value of MIC reading
Procedure: (§1) This activity was measured using a multipoint inoculator method as follows. The MIC for each compound was measured using an agar dilution method (Onda, H., et al., Int. J. Antimicrob. Agents. 18, 263 (2001)) (Mueller Hinton agar) by means of a multipoint inoculator delivering 10^4 colony forming units per spot.

K. pneumoniae = format: cell-based, Klebsiella pneumoniae; settings: Klebsiella pneumoniae, 18 h
Outline: (§2)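 MHA agar dilution, multipoint inoculation, 10^4 CFU/spot; MIC read per compound.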

MRSA = format: cell-based, methicillin-resistant Staphylococcus aureus
Outline: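 Agar dilution MIC on Mueller Hinton agar, multipoint inoculator delivering 10^4 colony forming units per spot. MRSA values are ranges across ten clinical MRSA strains; S. aureus NCTC 6571 as reference strain.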

S. aureus = format: cell-based, Staphylococcus aureus; settings: Staphylococcus aureus
Outline: as §2

S. epidemisis = format: cell-based, Staphylococcus epidermidis; settings: Staphylococcus epidermidis
Outline: as §2

P. auriginosa = format: cell-based, Pseudomonas aeruginosa; settings: Pseudomonas aeruginosa, NCTC6749, 18 h; P. auriginosa NCTC 6749; upper value of MIC reading; read-out: MIC
Outline: as §2

E. cloacae = format: cell-based, Enterobacter cloacae; settings: Enterobacter cloacae, NCTC11582, 18 h
Procedure: as §1

E. faecium = format: cell-based, Enterococcus faecium; settings: Enterococcus faecium
Outline: as §2

B. bronchiseptica = format: cell-based; settings: Bordetella bronchiseptica, NCTC8344, 18 h
Outline: as §2

S. haemolyticus = format: cell-based; settings: Staphylococcus haemolyticus, 18 h
Outline: as §2

E. faecalis = format: cell-based
Outline: as §2

S. aboni = format: cell-based; settings: S. aboni NCTC 6017; upper value of MIC reading
Outline: as §2

S. maltophilia = format: cell-based; settings: Stenotrophomonas maltophilia, NCTC10257, 18 h
Outline: as §2

S. marcesens = format: cell-based, Serratia marcescens; settings: Serratia marcescens, 18 h
Outline: as §2

[1] = NCTC11047, 18 h, S. epidemisis NCTC 11047, upper value of MIC reading, read-out: MIC

Measured: MIC

CN(C)c1ccc(/C=N/N=C(\N)c2ccncc2)c2ccccc12 [Compound 4PYdx, N^1-[(4-dimethylamino)-1-naphthylidene]-pyridine-4-carboxamidrazone]
64 µg/mL: S. epidemisis; [1]
128: MRSA; MRSA Isolate 1, upper value of MIC reading, in µg/mL | MRSA; MRSA Isolate 2, upper value of MIC reading, in µg/mL | MRSA; MRSA Isolate 3, upper value of MIC reading, in µg/mL | MRSA; MRSA Isolate 4, upper value of MIC reading, in µg/mL | MRSA; MRSA Isolate 5, upper value of MIC reading, in µg/mL | MRSA; MRSA Isolate 6, upper value of MIC reading, in µg/mL | MRSA; MRSA Isolate 8, upper value of MIC reading, in µg/mL | MRSA; MRSA Isolate 9, upper value of MIC reading, in µg/mL | MRSA; MRSA Isolate 10, upper value of MIC reading, in µg/mL
32 µg/mL: P. auriginosa | S. aboni
256 µg/mL: E. coli; E. coli W3110R− | K. pneumoniae | E. cloacae | E. faecium; 18 h | E. faecium; NCTC7171, 18 h | B. bronchiseptica | S. haemolyticus | E. faecalis; E. faecalis EBH1, upper value of MIC reading | E. faecalis; E. faecalis Isolate 1, upper value of MIC reading | E. faecalis; E. faecalis Isolate 2, upper value of MIC reading | E. faecalis; E. faecalis Isolate 4, upper value of MIC reading | E. faecalis; Enterococcus faecalis, 18 h | E. faecalis; Enterococcus faecalis, NCTC5957, 18 h | S. marcesens
128 µg/mL: E. coli; E. coli W3110R+ | MRSA; Staphylococcus aureus, 18 h | S. aureus; 18 h | S. aureus; NCTC6571, 18 h | S. aureus; NCTC10788, 18 h | S. epidemisis; 18 h | S. maltophilia
64 to 128 µg/mL: MRSA; Staphylococcus aureus, MRSA, 18 h, read-out: MRSA MIC range

Cc1onc(-c2c(F)cccc2Cl)c1C(=O)N[C@@H]1C(=O)N2[C@@H]1SC(C)(C)[C@@H]2C(=O)O [Fluclox., Flucloxacillin, reference compound]
16 µg/mL: MRSA; Staphylococcus aureus, 18 h, MRSA Isolate 4, upper value of MIC reading, read-out: MIC | S. maltophilia; S. maltophilia NCTC 10257, upper value of MIC reading, read-out: MIC
0.5 µg/mL: S. haemolyticus; S. haemolyticus Isolate 1, upper value of MIC reading, read-out: MIC | E. faecalis; Enterococcus faecalis, 18 h, E. faecalis EBH1, upper value of MIC reading, read-out: MIC | E. faecalis; Enterococcus faecalis, 18 h, E. faecalis Isolate 2, upper value of MIC reading, read-out: MIC
8 µg/mL: MRSA; Staphylococcus aureus, 18 h, MRSA Isolate 2, upper value of MIC reading, read-out: MIC | MRSA; Staphylococcus aureus, 18 h, MRSA Isolate 3, upper value of MIC reading, read-out: MIC | MRSA; Staphylococcus aureus, 18 h, MRSA Isolate 8, upper value of MIC reading, read-out: MIC | MRSA; Staphylococcus aureus, 18 h, MRSA Isolate 9, upper value of MIC reading, read-out: MIC | P. auriginosa
> 16 µg/mL: E. coli; E. coli W3110R+ | E. coli; E. coli W3110R− | K. pneumoniae; K. pneumoniae 327, upper value of MIC reading, read-out: MIC | S. epidemisis; 18 h, S. epidemisis Isolate 1, upper value of MIC reading, read-out: MIC | E. cloacae; E. cloacae NCTC 11582, upper value of MIC reading, read-out: MIC | B. bronchiseptica; B. bronchiseptica NCTC 8344, upper value of MIC reading, read-out: MIC | S. marcesens; S. marcesens 4444, upper value of MIC reading, read-out: MIC
1 µg/mL: E. faecium; 18 h, E. faecium ACTCC 10541, upper value of MIC reading, read-out: MIC | E. faecium; NCTC7171, 18 h, E. faecium NCTC 7171, upper value of MIC reading, read-out: MIC | E. faecalis; Enterococcus faecalis, 18 h, E. faecalis Isolate 1, upper value of MIC reading, read-out: MIC | E. faecalis; Enterococcus faecalis, 18 h, E. faecalis Isolate 4, upper value of MIC reading, read-out: MIC | E. faecalis; Enterococcus faecalis, 18 h, E. faecalis Isolate 5, upper value of MIC reading, read-out: MIC | E. faecalis; Enterococcus faecalis, NCTC5957, 18 h, E. faecalis NCTC 5957, upper value of MIC reading, read-out: MIC
0.25 µg/mL: MRSA; Staphylococcus aureus, 18 h, MRSA Isolate 6, upper value of MIC reading, read-out: MIC | MRSA; Staphylococcus aureus, 18 h, MRSA Isolate 7, upper value of MIC reading, read-out: MIC | MRSA; Staphylococcus aureus, 18 h, MRSA Isolate 10, upper value of MIC reading, read-out: MIC
0.05 µg/mL: MRSA; Staphylococcus aureus, 18 h, MRSA Isolate 1, upper value of MIC reading, read-out: MIC | MRSA; Staphylococcus aureus, 18 h, MRSA Isolate 5, upper value of MIC reading, read-out: MIC | S. aureus; 18 h, S. aureus Cowan 1, upper value of MIC reading, read-out: MIC | S. aureus; NCTC6571, 18 h, S. aureus NCTC 6571, upper value of MIC reading, read-out: MIC | S. aureus; NCTC10788, 18 h, S. aureus NCTC 10788, upper value of MIC reading, read-out: MIC | S. epidemisis; [1] | S. aboni
